From US7118895B2, “Process for producing aglycon by using diglycosidase and flavor-improved food containing the aglycon and converting agent to be used in the process” (Amano Enzyme Inc., priority 2000, dated 2006)

Test system: Crude diglycosidase
Test: Examination of temperature in the conversion into isoflavone aglycons by diglycosidase using soybean materials
Format: biochemical, Penicillium multicolor IAM7153
Set-up: Decomposition efficiency of glycitin family in roasted soy flour / Decomposition efficiency of daidzin family in roasted soy flour / Decomposition efficiency of genistin family in soymilk / Decomposition efficiency of daidzin family in soymilk / Decomposition efficiency of glycitin family in defatted soybean / Decomposition efficiency of daidzin family in defatted soybean: concentration or dose not given beside the values
In short: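 Temperature series (30-80° C.) of crude diglycosidase, diluted to 1.88 AU/mL in 20 mM acetate pH 4.0, acting on roasted soy flour, soymilk, defatted soybean or soy protein concentrate. Samples quenched with ethanol after 0-6 h, centrifuged, filtered and analyzed by HPLC for glycosides versus aglycons.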

[1] = 30 °C, heat treatment of enzyme: no, 0 h
[2] = 30 °C, heat treatment of enzyme: no, 1 h
[3] = 30 °C, heat treatment of enzyme: no, 3 h
[4] = 30 °C, heat treatment of enzyme: no, 6 h
[5] = 30 °C, heat treatment of enzyme: yes, 6 h
[6] = 45 °C, heat treatment of enzyme: no, 0 h
[7] = 45 °C, heat treatment of enzyme: no, 1 h
[8] = 45 °C, heat treatment of enzyme: no, 3 h
[9] = 45 °C, heat treatment of enzyme: no, 6 h
[10] = 45 °C, heat treatment of enzyme: yes, 6 h
[11] = 55 °C, heat treatment of enzyme: no, 0 h
[12] = 55 °C, heat treatment of enzyme: no, 1 h
[13] = 55 °C, heat treatment of enzyme: no, 3 h
[14] = 55 °C, heat treatment of enzyme: no, 6 h
[15] = 55 °C, heat treatment of enzyme: yes, 6 h
[16] = 65 °C, heat treatment of enzyme: no, 0 h
[17] = 65 °C, heat treatment of enzyme: no, 1 h
[18] = 65 °C, heat treatment of enzyme: no, 3 h
[19] = 65 °C, heat treatment of enzyme: no, 6 h
[20] = 65 °C, heat treatment of enzyme: yes, 6 h
[21] = 80 °C, heat treatment of enzyme: no, 0 h
[22] = 80 °C, heat treatment of enzyme: no, 1 h
[23] = 80 °C, heat treatment of enzyme: no, 3 h
[24] = 80 °C, heat treatment of enzyme: no, 6 h
[25] = 80 °C, heat treatment of enzyme: yes, 6 h

Compound: COc1cc2c(=O)c(-c3ccc(O)cc3)coc2cc1O[C@@H]1O[C@H](COC(=O)CC(=O)O)[C@@H](O)[C@H](O)[C@H]1O [malonylglycitin, 6″-O-malonylglycitin]
- Decomposition efficiency of glycitin family in defatted soybean (30° C., heat treatment of enzyme no, reaction time 0 h): 61.3%
- Decomposition efficiency of glycitin family in defatted soybean (30° C., heat treatment of enzyme no, reaction time 1 h): 48.3%
- Decomposition efficiency of glycitin family in defatted soybean (30° C., heat treatment of enzyme no, reaction time 3 h): 44.6%
- Decomposition efficiency of glycitin family in defatted soybean (30° C., heat treatment of enzyme no, reaction time 6 h): 45.6%
- Decomposition efficiency of glycitin family in defatted soybean (30° C., heat treatment of enzyme yes, reaction time 6 h): 45.1%
- Decomposition efficiency of glycitin family in concentrated soybean protein [1]: 0.4%
- Decomposition efficiency of glycitin family in roasted soy flour [1]: not detected
- Decomposition efficiency of glycitin family in soymilk [1]: 48.0%
- Decomposition efficiency of glycitin family in concentrated soybean protein [2]: 0.5%
- Decomposition efficiency of glycitin family in roasted soy flour [2]: not detected
- Decomposition efficiency of glycitin family in soymilk [2]: 51.0%
- Decomposition efficiency of glycitin family in concentrated soybean protein [3]: 0.5%
- Decomposition efficiency of glycitin family in roasted soy flour [3]: not detected
- Decomposition efficiency of glycitin family in soymilk [3]: 39.6%
- Decomposition efficiency of glycitin family in concentrated soybean protein [4]: 0.5%
- Decomposition efficiency of glycitin family in roasted soy flour [4]: not detected
- Decomposition efficiency of glycitin family in soymilk [4]: 28.4%
- Decomposition efficiency of glycitin family in concentrated soybean protein [5]: 0.4%
- Decomposition efficiency of glycitin family in roasted soy flour [5]: not detected
- Decomposition efficiency of glycitin family in soymilk [5]: 47.7%
- Decomposition efficiency of glycitin family in defatted soybean (45° C., heat treatment of enzyme no, reaction time 0 h): 65.2%
- Decomposition efficiency of glycitin family in defatted soybean (45° C., heat treatment of enzyme no, reaction time 1 h): 44.3%
- Decomposition efficiency of glycitin family in defatted soybean (45° C., heat treatment of enzyme no, reaction time 3 h): 44.8%
- Decomposition efficiency of glycitin family in defatted soybean (45° C., heat treatment of enzyme no, reaction time 6 h): 41.0%
- Decomposition efficiency of glycitin family in defatted soybean (45° C., heat treatment of enzyme yes, reaction time 6 h): 44.2%
- Decomposition efficiency of glycitin family in concentrated soybean protein [6]: 0.4%
- Decomposition efficiency of glycitin family in roasted soy flour [6]: not detected
- Decomposition efficiency of glycitin family in soymilk [6]: 49.1%
- Decomposition efficiency of glycitin family in concentrated soybean protein [7]: 0.6%
- Decomposition efficiency of glycitin family in roasted soy flour [7]: not detected
- Decomposition efficiency of glycitin family in soymilk [7]: 46.2%
- Decomposition efficiency of glycitin family in concentrated soybean protein [8]: 0.6%
- Decomposition efficiency of glycitin family in roasted soy flour [8]: not detected
- Decomposition efficiency of glycitin family in soymilk [8]: 29.9%
- Decomposition efficiency of glycitin family in concentrated soybean protein [9]: 0.6%
- Decomposition efficiency of glycitin family in roasted soy flour [9]: not detected
- Decomposition efficiency of glycitin family in soymilk [9]: 15.3%
- Decomposition efficiency of glycitin family in concentrated soybean protein [10]: 0.5%
- Decomposition efficiency of glycitin family in roasted soy flour [10]: not detected
- Decomposition efficiency of glycitin family in soymilk [10]: 47.2%
- Decomposition efficiency of glycitin family in defatted soybean (55° C., heat treatment of enzyme no, reaction time 0 h): 61.3%
- Decomposition efficiency of glycitin family in defatted soybean (55° C., heat treatment of enzyme no, reaction time 1 h): 44.8%
- Decomposition efficiency of glycitin family in defatted soybean (55° C., heat treatment of enzyme no, reaction time 3 h): 42.6%
- Decomposition efficiency of glycitin family in defatted soybean (55° C., heat treatment of enzyme no, reaction time 6 h): 42.7%
- Decomposition efficiency of glycitin family in defatted soybean (55° C., heat treatment of enzyme yes, reaction time 6 h): 45.5%
- Decomposition efficiency of glycitin family in concentrated soybean protein [11]: 0.4%
- Decomposition efficiency of glycitin family in roasted soy flour [11]: not detected
- Decomposition efficiency of glycitin family in soymilk [11]: 44.6%
- Decomposition efficiency of glycitin family in concentrated soybean protein [12]: 0.5%
- Decomposition efficiency of glycitin family in roasted soy flour [12]: not detected
- Decomposition efficiency of glycitin family in soymilk [12]: 39.1%
- Decomposition efficiency of glycitin family in concentrated soybean protein [13]: 0.5%
- Decomposition efficiency of glycitin family in roasted soy flour [13]: not detected
- Decomposition efficiency of glycitin family in soymilk [13]: 27.7%
- Decomposition efficiency of glycitin family in concentrated soybean protein [14]: 0.5%
- Decomposition efficiency of glycitin family in roasted soy flour [14]: not detected
- Decomposition efficiency of glycitin family in soymilk [14]: 16.5%
- Decomposition efficiency of glycitin family in concentrated soybean protein [15]: 0.4%
- Decomposition efficiency of glycitin family in roasted soy flour [15]: not detected
- Decomposition efficiency of glycitin family in soymilk [15]: 39.9%
- Decomposition efficiency of glycitin family in defatted soybean (65° C., heat treatment of enzyme no, reaction time 0 h): 65.2%
- Decomposition efficiency of glycitin family in defatted soybean (65° C., heat treatment of enzyme no, reaction time 1 h): 45.3%
- Decomposition efficiency of glycitin family in defatted soybean (65° C., heat treatment of enzyme no, reaction time 3 h): 42.1%
- Decomposition efficiency of glycitin family in defatted soybean (65° C., heat treatment of enzyme no, reaction time 6 h): 40.0%
- Decomposition efficiency of glycitin family in defatted soybean (65° C., heat treatment of enzyme yes, reaction time 6 h): 48.8%
- Decomposition efficiency of glycitin family in concentrated soybean protein [16]: 0.4%
- Decomposition efficiency of glycitin family in roasted soy flour [16]: not detected
- Decomposition efficiency of glycitin family in soymilk [16]: 48.0%
- Decomposition efficiency of glycitin family in concentrated soybean protein [17]: 0.5%
- Decomposition efficiency of glycitin family in roasted soy flour [17]: not detected
- Decomposition efficiency of glycitin family in soymilk [17]: 42.4%
- Decomposition efficiency of glycitin family in concentrated soybean protein [18]: 0.5%
- Decomposition efficiency of glycitin family in roasted soy flour [18]: not detected
- Decomposition efficiency of glycitin family in soymilk [18]: 34.3%
- Decomposition efficiency of glycitin family in concentrated soybean protein [19]: 0.4%
- Decomposition efficiency of glycitin family in roasted soy flour [19]: not detected
- Decomposition efficiency of glycitin family in soymilk [19]: 25.5%
- Decomposition efficiency of glycitin family in concentrated soybean protein [20]: 0.4%
- Decomposition efficiency of glycitin family in roasted soy flour [20]: not detected
- Decomposition efficiency of glycitin family in soymilk [20]: 36.0%
- Decomposition efficiency of glycitin family in defatted soybean (80° C., heat treatment of enzyme no, reaction time 0 h): 65.2%
- Decomposition efficiency of glycitin family in defatted soybean (80° C., heat treatment of enzyme no, reaction time 1 h): 46.1%
- Decomposition efficiency of glycitin family in defatted soybean (80° C., heat treatment of enzyme no, reaction time 3 h): 45.0%
- Decomposition efficiency of glycitin family in defatted soybean (80° C., heat treatment of enzyme no, reaction time 6 h): 40.3%
- Decomposition efficiency of glycitin family in defatted soybean (80° C., heat treatment of enzyme yes, reaction time 6 h): 48.1%
- Decomposition efficiency of glycitin family in concentrated soybean protein [21]: 0.4%
- Decomposition efficiency of glycitin family in roasted soy flour [21]: not detected
- Decomposition efficiency of glycitin family in soymilk [21]: 49.1%
- Decomposition efficiency of glycitin family in concentrated soybean protein [22]: 0.4%
- Decomposition efficiency of glycitin family in roasted soy flour [22]: not detected
- Decomposition efficiency of glycitin family in soymilk [22]: 43.6%
- Decomposition efficiency of glycitin family in concentrated soybean protein [23]: 0.4%
- Decomposition efficiency of glycitin family in roasted soy flour [23]: not detected
- Decomposition efficiency of glycitin family in soymilk [23]: 32.6%
- Decomposition efficiency of glycitin family in concentrated soybean protein [24]: 0.3%
- Decomposition efficiency of glycitin family in roasted soy flour [24]: not detected
- Decomposition efficiency of glycitin family in soymilk [24]: 21.3%
- Decomposition efficiency of glycitin family in concentrated soybean protein [25]: 0.3%
- Decomposition efficiency of glycitin family in roasted soy flour [25]: not detected
- Decomposition efficiency of glycitin family in soymilk [25]: 19.3%
